The supplement of paper PMC10307832

Columns and labels:
Assay in all cases: relative viability (nuclei count vs DMSO), 5 days (fraction); higher = more cells survive
[1] = compound: O=S(=O)(c1ccccc1)N(CC(F)(F)F)c1ccc(C(O)(C(F)(F)F)C(F)(F)F)cc1 + CC(C)C[C@H](NC(=O)[C@H](Cc1ccccc1)NC(=O)c1cnccn1)B(O)O [Bortezomib] (partner 0.002 µM)
Method in brief: (§1)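 One day after seeding in 1536-well plates, lung cancer cell lines were dosed by pin tool. Dosing was either single-drug or a fixed anchor-drug dose plus five library-drug doses (not always all listed) in √10 steps. After 5 days, nuclei were stained in one fix-and-stain step and counted on 4× images, and relative viability is the nuclei count of treated wells over that of vehicle wells, given as the median of duplicate plates.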

RO-3306 + Luminespib = compound: C1=CC2=C(C=CC(=C2)C=C3C(=O)NC(=NCC4=CC=CS4)S3)N=C1 [RO-3306] + CCNC(=O)c1noc(-c2cc(C(C)C)c(O)cc2O)c1-c1ccc(CN2CCOCC2)cc1 [Luminespib] (partner 0.01 µM)
Method in brief: as §1

RO-3306 + Alpelisib = compound: C1=CC2=C(C=CC(=C2)C=C3C(=O)NC(=NCC4=CC=CS4)S3)N=C1 [RO-3306] + Cc1nc(NC(=O)N2CCC[C@H]2C(N)=O)sc1-c1ccnc(C(C)(C)C(F)(F)F)c1 [Alpelisib] (partner 2 µM)
Method in brief: as §1

RO-3306 + Pictilisib = compound: C1=CC2=C(C=CC(=C2)C=C3C(=O)NC(=NCC4=CC=CS4)S3)N=C1 [RO-3306] + CS(=O)(=O)N1CCN(Cc2cc3nc(-c4cccc5[nH]ncc45)nc(N4CCOCC4)c3s2)CC1 [Pictilisib] (partner 1 µM)
Method in brief: as §1

Cell Line	relative viability ([1]; first compound 0.8 µM)	relative viability ([1]; first compound 2.53 µM)	relative viability ([1]; first compound 8 µM)	relative viability (RO-3306 + Luminespib; first compound 0.01 µM)	relative viability (RO-3306 + Luminespib; first compound 0.03162 µM)	relative viability (RO-3306 + Luminespib; first compound 0.1 µM)	relative viability (RO-3306 + Luminespib; first compound 0.3162 µM)	relative viability (RO-3306 + Luminespib; first compound 1 µM)	relative viability (RO-3306 + Alpelisib; first compound 0.01 µM)	relative viability (RO-3306 + Alpelisib; first compound 0.03162 µM)	relative viability (RO-3306 + Alpelisib; first compound 0.1 µM)	relative viability (RO-3306 + Alpelisib; first compound 0.3162 µM)	relative viability (RO-3306 + Alpelisib; first compound 1 µM)	relative viability (RO-3306 + Pictilisib; first compound 0.01 µM)	relative viability (RO-3306 + Pictilisib; first compound 0.03162 µM)	relative viability (RO-3306 + Pictilisib; first compound 0.1 µM)	relative viability (RO-3306 + Pictilisib; first compound 0.3162 µM)	relative viability (RO-3306 + Pictilisib; first compound 1 µM)
HCC-15	1.08	0.923	0.948	0.488	0.42	0.355	0.315	0.418	1.03	0.815	0.869	0.887	0.855	0.707	0.603	0.717	0.815	0.542
HCC-44	1.06	0.871	0.863	1.2	1.13	1.02	1.11	0.922	0.853	0.836	0.817	1.03	0.832	0.581	0.524	0.619	0.689	0.557
NCI-H2170				0.485	0.803	0.419	0.669	0.639	0.772	0.687	0.765	0.825	0.77	0.292	0.303	0.305	0.312	0.334
NCI-H2228	1.13	0.872	0.906	0.2	0.148	0.147	0.14	0.255	0.623	0.777	0.865	0.673	0.609	0.456	0.37	0.363	0.381	0.269
NCI-H727	1.23	0.762	0.737	0.244		0.453	0.906	0.3	0.622	0.531	0.517	0.716	0.786	0.355	0.356	0.438	0.319	0.41
NCI-H522				1.04	1.12	1.13	1.14	1.22										
NCI-H1563	0.915	0.927	0.685	0.516	0.519	0.6	0.533	0.507	0.992	0.906	0.823	1	0.898	0.641	0.597	0.69	0.62	0.59
EPLC-272H	0.964	0.899	0.656	0.239	0.114	0.142	0.367	0.111	0.927	0.79	0.909	0.829	0.972	0.3	0.211	0.275	0.255	0.287
NCI-H1437	0.485	0.423	0.588	1.17	1.02	1.09	1.11	1.17	1.05	0.868	0.999	1	0.929	0.403	0.364	0.372	0.472	0.449
CAL-12T		0.964	0.958	0.68	0.517	0.228	0.433	0.604	1.38	1.26	1.17	1.19	1.37	0.359			0.411	0.462
SK-LU-1	1.09	1.04	1.38	0.184	0.194	0.179	0.202	0.166	1.03	1.07	0.951	1.02	0.973	0.539	0.603	0.651	0.671	0.521
LCLC-97TM1	0.397	0.457	0.723	0.765	0.711	0.61	0.752	0.93		0.243	0.243	0.27	0.179		0.18	0.165	0.254	0.183
LXF-289	0.952	0.899	0.898	0.766	0.654	0.593	0.603	0.577	1.08	1.01	1.03	1.05	1.05	0.781	0.677	0.806	0.805	0.774
HCC-366	1.23	1.08	1.08						0.377	0.347	0.389	0.503	0.34	0.118	0.0988	0.149	0.214	0.106
NCI-H1355	1.39	1.12	1.1	0.888		0.68	0.84	0.68	1	0.709	0.872	0.969	0.822	0.423	0.396	0.493	0.512	0.316
H3255	0.564	0.708	0.761	0.899	0.938	0.763	0.837	0.866	0.576	0.59	0.632	0.628	0.6	0.556	0.486	0.481	0.491	0.56
ChaGo-K-1	1.1	0.933	1.47	0.594	0.585	0.469	0.56	0.32						0.692	0.701	0.449	0.69	0.49
NCI-H2023	1	0.899	0.831	0.681	0.723	0.643	0.534	0.396	0.758	0.448	0.558	0.661	0.564	0.168	0.241	0.225	0.219	0.167
NCI-H1299	1.02	0.981	0.946						1.07	0.808	1.05	1.07	1.12	0.873	0.854	0.833	0.796	0.649
